Assay results reported in patent US8377981B2, “CBI derivatives subject to reductive activation” (The Scripps Research Institute, priority 2007, dated 2013).
Read-outs that look alike come from different tables or passages of the source.

Key:
[1] = system: L1210 cell line (mouse leukemia); test: Cytotoxic activity, L1210 cell line; type: cell-based
Experimental: (§1) The O-amino phenol derivatives bearing the N—O prodrug linkages and the various N-acyl substituents were assayed for cytotoxic activity alongside the parent drugs CBI-TMI (2) (Boger, D. L.; Yun, W. J. Am. Chem. Soc. 1994, 116, 7996) and mitomycin C (Boger, D. L.; et al. Bioorg. Med. Chem. Lett. 1991, 1, 115; Boger, D. L.; et al. Bioorg. Med. Chem. 1995, 3, 1429) as well as the two control standards 9 and 10 incapable of free phenol release. Three cell lines were examined including a standard L1210 cell line (mouse leukemia) as well as the mitomycin-sensitive (H460, expresses high levels of DT-Diaphorase) and resistant (H596, lacks DT-Diaphorase) non small cell lung cancer (NSCLC) cell lines, with results shown in the Table below.

[2] = system: H460 (mitomycin-sensitive, expresses high levels of DT-Diaphorase) non small cell lung cancer (NSCLC) cell line; test: Cytotoxic activity, H460 cell line; type: cell-based; details: for IC50: Homo sapiens, NCI-H460, read-out: IC50 (nM) H460
Experimental: as §1

[3] = system: H596 (mitomycin-resistant, lacks DT-Diaphorase) non small cell lung cancer (NSCLC) cell line; test: Cytotoxic activity, H596 cell line; type: cell-based; details: Homo sapiens, NCI-H596, read-out: IC50 (nM) H596
Experimental: as §1

w794 duplex DNA = test: DNA alkylation selectivity and efficiency (thermally-induced strand cleavage); type: biochemical
Experimental: FIG. 1 illustrates the results of an electrophoresis gel with 8% denaturing PAGE and autoradiography. Thermally-induced strand cleavage of w794 DNA; DNA-agent incubation at 4° C. for 18 hours, removal of unbound agent by EtOH precipitation, and 30 minutes of thermolysis (100° C.) followed by 8% denaturing PAGE and autoradiography. Lane 1, control DNA; lanes 2-5, Sanger G, C, A, and T sequencing reactions; lanes 6-8, 2 (1×10^−4 to 1×10^−6); lanes 9-11, 10 (1×10^−1 to 1×10^−3); lanes 12-14, 4 (1×10^−1 to 1×10^−3), lanes 15-17, 9 (1×10^−1 to 1×10^−3).
The DNA alkylation properties of 4 were examined alongside the parent drug CBI-TMI (2), and the two control standards 9 and 10 (incapable of spirocyclization) within w794 duplex DNA (Boger, D. L.; et al. Tetrahedron 1991, 47, 2661) for which results for an extensive series of duocarmycin analogues have been reported. The sites of DNA alkylation and its efficiency were directly assessed by thermally-induced singly 5′ end-labeled duplex DNA strand cleavage following incubation with the agents ([…], natural enantiomers examined).
The DNA alkylation reactions were performed by treatment of 4.5 μL of singly ^32P 5′-end-labeled double-stranded w794 DNA (Boger, D. L.; et al. Tetrahedron 1991, 47, 2661) in TE buffer (10 mM Tris, 1 mM EDTA, pH 7.6) with 0.5 μL of agent in EtOH (at the specified concentration). […] Unbound agent was removed by EtOH precipitation of DNA (0.5 μL of 3.0 M sodium acetate and 12.5 μL of cold absolute EtOH) and the solutions were stored at −78° C. for 1 hour or longer. The DNA was pelleted by centrifugation at 4° C. (13000 rpm, 25 minutes), dried in a Savant Speed Vac concentrator, and resuspended in 5 μL of TE buffer (pH 7.6). Thermal depurination (3×10 minutes at 100° C.) was performed and then 2.5 μL of formamide dye solution was added to the cooled samples. Thermally denatured samples were assayed by gel electrophoresis [8% denaturing gel with 8 M urea in TBE buffer (89 mM Tris-borate, 2 mM EDTA)] followed by autoradiography of the dried gel using Kodak BIOMAX XAR film and a Picker Spectra™ intensifying screen.

[4] = Chemical stability and reactivity of the N-acyl O-amino phenol derivatives; type: physicochemical
[5] = Stability in pH 7.0 phosphate buffer; type: physicochemical; details: HPLC, UV; monitored 72 hours
[6] = Stability in human plasma; type: in vitro ADME; details: 50 μg/100 μL, 10% DMSO, release of free drug 2
[7] = Mus musculus, L1210, read-out: IC50 (nM) L1210, natural enantiomer series, CBI-TMI derivatives

Compound	IC50 [1, 7]	IC50 ([1]; read-out: IC50 (nM) L1210, natural enantiomer series, CBI-TMI derivatives)	IC50 [2]	IC50 [3]	observable DNA alkylation (w794 duplex DNA; w794 DNA, 4° C., 18 hours)	DNA alkylation relative to that of 2 (w794 duplex DNA; w794 DNA, natural enantiomers)	fold less potent than 2 ([1]; against L1210, natural enantiomer)	potency compared with 2 ([2]; against H460/H596)	DNA alkylation efficiency, reduction relative to CBI-TMI (2) (w794 duplex DNA; w794 DNA, 4° C., 18 hours, natural enantiomers)	DNA alkylation sequence selectivity (w794 duplex DNA; w794 DNA, compared with CBI-TMI (2))	stability to treatment with BnSH in MeOH with NaHCO3 ([4]; BnSH in MeOH, NaHCO3, 2 hours, 23° C.)	stability to treatment with BnSH ([4]; BnSH in THF (2-72 hours, 23° C.) or MeOH (2-72 hours, 23° C.))	stability to treatment with BnSH in THF with insoluble NaHCO3 ([4]; BnSH in THF, insoluble NaHCO3, 2 hours, 23° C.)	stability in MeOH ([4]; MeOH)	stability to NaHCO3 or Na2CO3 in MeOH ([4]; NaHCO3 or Na2CO3 in MeOH, 2 hours, 23° C.)	stability to acidic conditions ([4]; TFA-CH2Cl2, 4 N HCl-EtOAc)	stability on long term storage ([4]; storage)	stability in pH 7.0 phosphate buffer [5]	half-life [6]	DNA alkylation under forcing conditions (w794 duplex DNA; 37° C., 18 hours, data not shown)
COc1cc2cc(C(=O)N3C[C@@H](CCl)c4c3cc(OC)c3ccccc43)[nH]c2c(OC)c1OC [Compound 10]	> 100 nM	50 nM	> 100 nM	> 100 nM	failed to exhibit significant observable DNA alkylation	< 0.01%														
COc1cc2cc(C(=O)N3C[C@@H](CCl)c4c3cc(ONC(=O)OC(C)(C)C)c3ccccc43)[nH]c2c(OC)c1OC [Compound 4]	0.5 nM		1 nM	6 nM			10 fold	essentially equipotent	1,000-10,000 fold	identical sequence selectivity	cleaved to release 2	stable	stable	stable	2 was released slowly	surprisingly robust to acidic conditions	withstanding even long term storage effectively	no significant cleavage of the prodrug was observed	3 h	
COc1cc2cc(C(=O)N3C[C@@H](CCl)c4c3ccc3ccccc43)[nH]c2c(OC)c1OC [Compound 9]	> 100 nM		> 100 nM	> 100 nM	failed to exhibit significant observable DNA alkylation															no appreciable DNA alkylation
